Results taken from ChEMBL document CHEMBL4229366, “Synthesis and evaluation of novel coumarin-oxime ethers as potential anti-tubercular agents: Their DNA cleavage ability and BSA interaction study” (Eur J Med Chem, 2018).
≈ marks a conversion by molar mass, not a printed value. Calls of active or inactive are those of the source. The rule behind the calls is not given here.

Legend:
[1] = tested on: Calf thymus DNA; test: Induction of calf thymus DNA cleavage at 5 uM by ethidium bromide based agarose gel electrophoresis method; type: nucleic-acid assay; conditions: Bos taurus
[2] = tested on: Mycobacterium tuberculosis; test: Antitubercular activity against Mycobacterium tuberculosis H37Rv ATCC 27294 at 6.25 ug/ml after 5 days by MABA method; type: functional; conditions: H37Rv ATCC 27294, 120 h, read-out: GI
[3] = Dissociation constant, pKa of the compound by potentiometric titration method; type: physicochemical
[4] = tested on: Mycobacterium tuberculosis; test: Antitubercular activity against Mycobacterium tuberculosis H37Rv ATCC 27294 after 5 days by MABA method; type: functional; conditions: H37Rv ATCC 27294, 120 h
[5] = Stability of the compound at pH 4.4 to 8.6 by electronic absorption spectroscopic analysis; type: physicochemical; conditions: buffer
[6] = Cytotoxicity against African green monkey Vero cells assessed as cell survival at 3.9 ug/ml after 72 hrs by MTS-PMS assay; type: cell-based; conditions: chlorocebus sabaeus, read-out: Survival
[7] = Cytotoxicity against African green monkey Vero cells assessed as cell survival at 1.9 ug/ml after 72 hrs by MTS-PMS assay; type: cell-based; conditions: chlorocebus sabaeus, read-out: Survival
[8] = target: T1, Albumin (Bos taurus, UniProt P02769); test: Binding affinity to bovine serum albumin in pH 7.4 phosphate buffer at 27 degC assessed as association constant by UV-vis spectroscopic analysis; type: ADME; conditions: cattle, isolated protein
[9] = target: T1, Albumin; test: Binding affinity to bovine serum albumin in pH 7.4 phosphate buffer at 27 degC by UV-vis spectroscopic analysis; type: ADME; conditions: cattle, isolated protein
[10] = Stability of the compound at pH 4.4 to 8.2 by electronic absorption spectroscopic analysis; type: physicochemical; conditions: buffer
[11] = Cytotoxicity against African green monkey Vero cells assessed as cell survival at 0.4 ug/ml after 72 hrs by MTS-PMS assay; type: cell-based; conditions: chlorocebus sabaeus, read-out: Survival
[12] = target: T1, Albumin; test: Binding affinity to bovine serum albumin assessed as quenching constant in phosphate buffer of pH 7.4 by fluorescence spectroscopic analysis; type: ADME; conditions: cattle, isolated protein
[13] = target: T1, Albumin; test: Binding affinity to bovine serum albumin assessed as Stern-Volmer quenching constant in phosphate buffer of pH 7.4 by fluorescence spectroscopic analysis; type: ADME; conditions: cattle, isolated protein
[14] = target: T1, Albumin; test: Binding affinity to bovine serum albumin assessed as association constant in phosphate buffer of pH 7.4 by fluorescence spectroscopic analysis; type: ADME; conditions: cattle, isolated protein
[15] = target: T1, Albumin; test: Binding affinity to bovine serum albumin in pH 7.4 phosphate buffer at 27 degC assessed as Gibbs free energy change by UV-vis spectroscopic analysis; type: ADME; conditions: cattle, isolated protein
[16] = Cytotoxicity against African green monkey Vero cells assessed as cell survival at 0.9 ug/ml after 72 hrs by MTS-PMS assay; type: cell-based; conditions: chlorocebus sabaeus, read-out: Survival
[17] = Cytotoxicity against African green monkey Vero cells assessed as cell survival at 31.2 ug/ml after 72 hrs by MTS-PMS assay; type: cell-based; conditions: chlorocebus sabaeus, read-out: Survival
[18] = Cytotoxicity against African green monkey Vero cells assessed as cell survival at 0.2 ug/ml after 72 hrs by MTS-PMS assay; type: cell-based; conditions: chlorocebus sabaeus, read-out: Survival

T1 sequence (P02769 whole entry): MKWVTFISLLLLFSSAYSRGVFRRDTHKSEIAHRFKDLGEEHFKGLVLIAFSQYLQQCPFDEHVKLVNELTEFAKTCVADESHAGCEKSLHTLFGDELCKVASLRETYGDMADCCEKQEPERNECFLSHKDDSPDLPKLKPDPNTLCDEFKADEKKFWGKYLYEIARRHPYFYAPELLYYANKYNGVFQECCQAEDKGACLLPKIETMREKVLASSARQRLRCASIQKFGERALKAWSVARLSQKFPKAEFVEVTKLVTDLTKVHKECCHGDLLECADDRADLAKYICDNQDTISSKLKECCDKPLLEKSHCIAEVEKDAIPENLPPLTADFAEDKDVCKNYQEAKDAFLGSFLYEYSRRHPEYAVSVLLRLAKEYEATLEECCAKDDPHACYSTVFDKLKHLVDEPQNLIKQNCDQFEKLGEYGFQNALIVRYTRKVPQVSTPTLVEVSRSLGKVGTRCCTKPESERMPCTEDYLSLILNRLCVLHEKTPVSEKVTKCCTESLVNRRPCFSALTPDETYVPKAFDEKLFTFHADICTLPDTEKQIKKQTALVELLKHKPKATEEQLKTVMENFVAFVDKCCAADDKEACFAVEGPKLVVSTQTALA

Row | Compound | Activity [1] | inhibition of growth at 6.25 µg/mL [2] | pKa [3] | MIC [4] | further results
1 | CC(=O)/C(C)=N/OCc1cc(=O)oc2c1ccc1ccccc12 | inactive | 87% | 5.6 | – | –
2 | CC(=O)/C(C)=N/OCc1cc(=O)oc2cc(Cl)ccc12 | inactive | 21% | 5.4 | – | –
3 | CC(=O)/C(C)=N/OCc1cc(=O)oc2ccc(C)cc12 | Active | 92% | 5.7 | 0.39 µg/mL (≈ 1.43 µM) | Stability [5]: Stable; viability at 72 h, 3.9 ug/ml [6]: 72%
4 | COc1ccc2oc(=O)cc(CO/N=C(\C)C(C)=O)c2c1 | Active | 94% | 5.8 | 0.19 µg/mL (≈ 0.657 µM) | Stability [5]: Stable; viability at 72 h, 1.9 ug/ml [7]: 78%
5 | CC(=O)/C(C)=N/OCc1cc(=O)oc2ccc(Cl)cc12 | Active | 26% | 5.4 | – | –
6 | O=c1cc(CSC2=NCCS2)c2cc(Cl)ccc2o1 | – | – | – | 0.09 µg/mL (≈ 0.289 µM) | –
7 | CC(=O)/C(C)=N/OCc1cc(=O)oc2cc(C)cc(C)c12 | Active | 97% | 5.5 | 0.04 µg/mL (≈ 0.139 µM) | Ka [8]: 1.24 ×10⁴ L/mol; Activity [9]: Dose-dependent effect; Stability [10]: Stable; viability at 72 h, 0.4 ug/ml [11]: 89%; Kq [12]: 1.07 ×10¹³ /mol/s; KSV [13]: 6.19 ×10⁴ /mol; Ka [14]: 1.37 ×10⁴ L/mol; deltaG [15]: -5.619 kcal/mol
8 | CC(=O)/C(C)=N/OCc1cc(=O)oc2c(C)c(C)ccc12 | Active | 95% | 5.5 | 0.09 µg/mL (≈ 0.313 µM) | viability at 72 h, 0.9 ug/ml [16]: 84%; Stability [5]: Stable
9 | CC(=O)/C(C)=N/OCc1cc(=O)oc2ccc3ccccc3c12 | Active | 90% | 5.6 | 3.12 µg/mL (≈ 10.1 µM) | viability at 72 h, 31.2 ug/ml [17]: 67%
10 | NNC(=O)c1ccncc1 [ISONIAZID] | – | 100% | 1.8 to 9.5 | 0.02 µg/mL (≈ 0.146 µM) | viability at 72 h, 0.2 ug/ml [18]: 98%
11 | CC(=O)/C(C)=N/OCc1cc(=O)oc2cc(C)ccc12 | inactive | 91% | 5.5 | 0.39 µg/mL (≈ 1.43 µM) | viability at 72 h, 3.9 ug/ml [6]: 59%
12 | CC(=O)/C(C)=N/OCc1cc(=O)oc2ccc(Br)cc12 | Active | 81% | 5.4 | – | –
